Key:
Type in all cases: biochemical
human Yes1 enzyme = molecular target: T1, human Yes1 enzyme (Homo sapiens, UniProt P07947); assay: Yes1 enzyme inhibitory activity (time-resolved fluorometry, biotinylated peptide phosphorylation); conditions: biotinylated peptide phosphorylation, read-out: YES_IC50
T1 construct: made in house
Procedure, shortened: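 Inhibition was expressed against a compound-free control to give IC50, using TR-FRET read-out (Eu-cryptate anti-pTyr antibody, streptavidin-XL665).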

human Src enzyme = molecular target: T2, human Src enzyme (Homo sapiens, UniProt P12931); assay: Src enzyme inhibitory activity (time-resolved fluorometry, biotinylated peptide phosphorylation); conditions: biotinylated peptide phosphorylation, read-out: SRC_IC50
T2 construct: purchased Carna Biosciences, Inc. 08-173
T2 sequence (P12931 whole entry): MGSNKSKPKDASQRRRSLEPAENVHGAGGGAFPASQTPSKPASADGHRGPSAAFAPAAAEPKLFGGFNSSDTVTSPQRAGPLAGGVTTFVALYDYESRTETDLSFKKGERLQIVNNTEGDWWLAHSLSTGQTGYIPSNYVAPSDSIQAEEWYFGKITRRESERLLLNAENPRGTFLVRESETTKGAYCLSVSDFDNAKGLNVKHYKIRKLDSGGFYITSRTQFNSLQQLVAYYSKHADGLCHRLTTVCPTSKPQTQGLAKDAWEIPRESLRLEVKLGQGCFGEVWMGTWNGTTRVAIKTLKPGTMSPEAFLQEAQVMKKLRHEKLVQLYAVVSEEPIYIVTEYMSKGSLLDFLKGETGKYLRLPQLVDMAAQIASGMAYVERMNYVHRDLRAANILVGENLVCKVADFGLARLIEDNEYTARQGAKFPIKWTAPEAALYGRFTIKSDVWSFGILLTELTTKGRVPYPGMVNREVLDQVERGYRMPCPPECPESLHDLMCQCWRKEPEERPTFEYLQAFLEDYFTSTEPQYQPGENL
Procedure, shortened: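 Compounds were tested for blocking tyrosine phosphorylation of a biotinylated peptide substrate by recombinant human Src. Phosphorylated product was quantified by time-resolved fluorometry using europium cryptate and XL665 conjugates, and IC50 was calculated against the compound-free control.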

human Lck enzyme = molecular target: T3, human Lck enzyme (Homo sapiens, UniProt P06239); assay: Lck enzyme inhibitory activity (time-resolved fluorometry, biotinylated peptide phosphorylation); conditions: biotinylated peptide phosphorylation, read-out: LCK_IC50
T3 construct: purchased Carna Biosciences, Inc. 08-170
T3 sequence (P06239 whole entry): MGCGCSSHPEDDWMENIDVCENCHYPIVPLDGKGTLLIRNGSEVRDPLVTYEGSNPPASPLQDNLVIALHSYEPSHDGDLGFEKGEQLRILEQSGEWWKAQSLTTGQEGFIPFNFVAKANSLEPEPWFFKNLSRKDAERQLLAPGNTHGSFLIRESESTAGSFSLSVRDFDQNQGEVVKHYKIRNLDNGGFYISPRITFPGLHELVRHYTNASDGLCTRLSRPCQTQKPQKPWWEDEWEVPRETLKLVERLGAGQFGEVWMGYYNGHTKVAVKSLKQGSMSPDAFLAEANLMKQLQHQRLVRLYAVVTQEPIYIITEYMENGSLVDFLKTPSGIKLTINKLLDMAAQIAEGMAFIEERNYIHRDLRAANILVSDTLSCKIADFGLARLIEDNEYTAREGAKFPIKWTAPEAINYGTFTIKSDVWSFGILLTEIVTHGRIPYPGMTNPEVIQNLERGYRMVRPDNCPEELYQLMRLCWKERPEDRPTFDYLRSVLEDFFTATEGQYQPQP
Procedure, shortened: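 Readout pairs a europium cryptate-labelled anti-phosphotyrosine antibody with XL665-streptavidin, measured by time-resolved fluorescence. IC50 derived from percent inhibition against untreated controls.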

T1 sequence (P07947 whole entry): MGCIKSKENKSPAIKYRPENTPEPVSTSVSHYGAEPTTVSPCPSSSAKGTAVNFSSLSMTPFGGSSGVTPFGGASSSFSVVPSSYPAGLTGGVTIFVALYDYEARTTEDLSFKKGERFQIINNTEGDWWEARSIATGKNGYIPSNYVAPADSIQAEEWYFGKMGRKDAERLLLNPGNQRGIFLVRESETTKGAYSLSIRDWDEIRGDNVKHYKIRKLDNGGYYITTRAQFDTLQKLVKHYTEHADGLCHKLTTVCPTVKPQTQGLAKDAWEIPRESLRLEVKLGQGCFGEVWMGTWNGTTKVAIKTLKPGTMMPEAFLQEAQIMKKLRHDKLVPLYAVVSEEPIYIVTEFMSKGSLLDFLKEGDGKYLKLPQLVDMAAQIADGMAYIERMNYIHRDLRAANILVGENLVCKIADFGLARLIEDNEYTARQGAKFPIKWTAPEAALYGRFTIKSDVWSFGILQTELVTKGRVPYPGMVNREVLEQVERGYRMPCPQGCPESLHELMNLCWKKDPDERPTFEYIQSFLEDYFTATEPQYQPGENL

Compound	IC50 (human Yes1 enzyme) [nM]	IC50 (human Src enzyme) [nM]	IC50 (human Lck enzyme) [nM]
Cc1cc(Oc2c(F)cccc2F)ncc1-n1ncc(C(=O)c2cc3cc(F)c(NS(=O)(=O)c4cccc(F)c4)cc3[nH]2)c1N [Example 5-1-553, N-[2-[5-amino-1-[6-(2,6-difluorophenoxy)-4-methylpyridin-3-yl]pyrazole-4-carbonyl]-5-fluoro-1H-indol-6-yl]-3-fluorobenzenesulfonamide]	17	1300	370
Cc1cc(Oc2ccccc2F)ncc1-n1ncc(C(=O)c2cc3cc(F)c(NS(=O)(=O)c4cccc(F)c4)cc3[nH]2)c1N [Example 5-1-554, N-[2-[5-amino-1-[6-(2-fluorophenoxy)-4-methylpyridin-3-yl]pyrazole-4-carbonyl]-5-fluoro-1H-indol-6-yl]-3-fluorobenzenesulfonamide]	13	1500	260
Cc1cc2cc(C(=O)c3cnn(-c4cnc(Oc5c(F)cccc5F)cc4C)c3N)[nH]c2cc1NS(=O)(=O)c1cccc(C#N)c1 [Example 5-1-555, N-[2-[5-amino-1-[6-(2,6-difluorophenoxy)-4-methylpyridin-3-yl]pyrazole-4-carbonyl]-5-methyl-1H-indol-6-yl]-3-cyanobenzenesulfonamide]	14	1200	150
Cc1cc(Oc2ccccc2F)ncc1-n1ncc(C(=O)c2cc3cc(F)c(NS(=O)(=O)c4cccc(C#N)c4)cc3[nH]2)c1N [Example 5-1-556, N-[2-[5-amino-1-[6-(2-fluorophenoxy)-4-methylpyridin-3-yl]pyrazole-4-carbonyl]-5-fluoro-1H-indol-6-yl]-3-cyanobenzenesulfonamide]	8.8	1000	150
Cc1cc2cc(C(=O)c3cnn(-c4cnc(Oc5c(F)cccc5F)cc4C)c3N)[nH]c2cc1NS(=O)(=O)c1cccc(Cl)c1 [Example 5-1-557, N-[2-[5-amino-1-[6-(2,6-difluorophenoxy)-4-methylpyridin-3-yl]pyrazole-4-carbonyl]-5-methyl-1H-indol-6-yl]-3-chlorobenzenesulfonamide]	19	1500	320
Cc1cc(Oc2ccccc2F)ccc1-n1ncc(C(=O)c2cc3cc(F)c(NS(=O)(=O)c4cccc(Cl)c4)cc3[nH]2)c1N [Example 5-1-558, N-[2-[5-amino-1-[4-(2-fluorophenoxy)-2-methylphenyl]pyrazole-4-carbonyl]-5-fluoro-1H-indol-6-yl]-3-chlorobenzenesulfonamide]	4.9	1500	230
Cc1cc(Oc2c(F)cccc2F)ncc1-n1ncc(C(=O)c2cc3cc(F)c(NS(=O)(=O)c4cccc(Cl)c4)cc3[nH]2)c1N [Example 5-1-559, N-[2-[5-amino-1-[6-(2,6-difluorophenoxy)-4-methylpyridin-3-yl]pyrazole-4-carbonyl]-5-fluoro-1H-indol-6-yl]-3-chlorobenzenesulfonamide]	17	2400	810
Cc1cc(Oc2ccccc2F)ncc1-n1ncc(C(=O)c2cc3cc(F)c(NS(=O)(=O)c4cccc(Cl)c4)cc3[nH]2)c1N [Example 5-1-560, N-[2-[5-amino-1-[6-(2-fluorophenoxy)-4-methylpyridin-3-yl]pyrazole-4-carbonyl]-5-fluoro-1H-indol-6-yl]-3-chlorobenzenesulfonamide]	16	2400	690
Cc1cc2cc(C(=O)c3cnn(-c4cnc(Oc5c(F)cccc5F)cc4C)c3N)[nH]c2cc1NS(=O)(=O)c1cc(F)cc(F)c1 [Example 5-1-561, N-[2-[5-amino-1-[6-(2,6-difluorophenoxy)-4-methylpyridin-3-yl]pyrazole-4-carbonyl]-5-methyl-1H-indol-6-yl]-3,5-difiuorobenzenesulfonamide]	17	940	270
Cc1cc(Oc2ccccc2F)ccc1-n1ncc(C(=O)c2cc3cc(F)c(NS(=O)(=O)c4cc(F)cc(F)c4)cc3[nH]2)c1N [Example 5-1-562, N-[2-[5-amino-1-[4-(2-fluorophenoxy)-2-methylphenyl]pyrazole-4-carbonyl]-5-fluoro-1H-indol-6-yl]-3,5-difluorobenzenesulfonamide]	5.3	830	180
Cc1cc(Oc2c(F)cccc2F)ncc1-n1ncc(C(=O)c2cc3cc(F)c(NS(=O)(=O)c4cc(F)cc(F)c4)cc3[nH]2)c1N [Example 5-1-563, N-[2-[5-amino-1-[6-(2,6-difluorophenoxy)-4-methylpyridin-3-yl]pyrazole-4-carbonyl]-5-fluoro-1H-indol-6-yl]-3,5-difluorobenzenesulfonamide]	17	1200	590
Cc1cc(Oc2ccccc2F)ncc1-n1ncc(C(=O)c2cc3cc(F)c(NS(=O)(=O)c4cc(F)cc(F)c4)cc3[nH]2)c1N [Example 5-1-564, N-[2-[5-amino-1-[6-(2-fluorophenoxy)-4-methylpyridin-3-yl]pyrazole-4-carbonyl]-5-fluoro-1H-indol-6-yl]-3,5-difluorobenzenesulfonamide]	14	1500	680
Cc1cc2cc(C(=O)c3cnn(-c4cnc(Oc5c(F)cccc5F)cc4C)c3N)[nH]c2cc1NS(=O)(=O)c1c(F)cc(F)cc1F [Example 5-1-565, N-[2-[5-amino-1-[6-(2,6-difluorophenoxy)-4-methylpyridin-3-yl]pyrazole-4-carbonyl]-5-methyl-1H-indol-6-yl]-2,4,6-trifluorobenzenesulfonamide]	19	1100	720
Cc1cc(Oc2ccccc2F)ccc1-n1ncc(C(=O)c2cc3cc(F)c(NS(=O)(=O)c4c(F)cc(F)cc4F)cc3[nH]2)c1N [Example 5-1-566, N-[2-[5-amino-1-[4-(2-fluorophenoxy)-2-methylphenyl]pyrazole-4-carbonyl]-5-fluoro-1H-indol-6-yl]-2,4,6-trifluorobenzenesulfonamide]	5.6	810	340
Cc1cc(Oc2c(F)cccc2F)ncc1-n1ncc(C(=O)c2cc3cc(F)c(NS(=O)(=O)c4c(F)cc(F)cc4F)cc3[nH]2)c1N [Example 5-1-567, N-[2-[5-amino-1-[6-(2,6-difluorophenoxy)-4-methylpyridin-3-yl]pyrazole-4-carbonyl]-5-fluoro-1H-indol-6-yl]-2,4,6-trifluorobenzenesulfonamide]	19	1200	610
Cc1cc(Oc2ccccc2F)ncc1-n1ncc(C(=O)c2cc3cc(F)c(NS(=O)(=O)c4c(F)cc(F)cc4F)cc3[nH]2)c1N [Example 5-1-568, N-[2-[5-amino-1-[6-(2-fluorophenoxy)-4-methylpyridin-3-yl]pyrazole-4-carbonyl]-5-fluoro-1H-indol-6-yl]-2,4,6-trifluorobenzenesulfonamide]	17	1300	750
COc1ccnc(S(=O)(=O)Nc2cc3[nH]c(C(=O)c4cnn(-c5cnc(Oc6c(F)cccc6F)cc5C)c4N)cc3cc2OCC(F)F)c1 [Example 5-1-569, N-[2-[5-amino-1-[6-(2,6-difluorophenoxy)-4-methylpyridin-3-yl]pyrazole-4-carbonyl]-5-(2,2-difluoroethoxy)-1H-indol-6-yl]-4-methoxypyridine-2-sulfonamide]	4.1	230	22
Cc1cc(Oc2c(F)cccc2F)ncc1-n1ncc(C(=O)c2cc3cc(OCC(F)F)c(NS(=O)(=O)c4cccc(F)n4)cc3[nH]2)c1N [Example 5-1-570, N-[2-[5-amino-1-[6-(2,6-difluorophenoxy)-4-methylpyridin-3-yl]pyrazole-4-carbonyl]-5-(2,2-difluoroethoxy)-1H-indol-6-yl]-6-fluoropyridine-2-sulfonamide]	2.1	410	9.6
Cc1cnc(F)c(S(=O)(=O)Nc2cc3[nH]c(C(=O)c4cnn(-c5cnc(Oc6c(F)cccc6F)cc5C)c4N)cc3cc2OCC(F)F)c1 [Example 5-1-571, N-[2-[5-amino-1-[6-(2,6-difluorophenoxy)-4-methylpyridin-3-yl]pyrazole-4-carbonyl]-5-(2,2-difluoroethoxy)-1H-indol-6-yl]-2-fluoro-5-methylpyridine-3-sulfonamide]	2.2	540	30
Cc1cc(Oc2c(F)cccc2F)ncc1-n1ncc(C(=O)c2cc3cc(OCC(F)F)c(NS(=O)(=O)c4cccc(Cl)n4)cc3[nH]2)c1N [Example 5-1-572, N-[2-[5-amino-1-[6-(2,6-difluorophenoxy)-4-methylpyridin-3-yl]pyrazole-4-carbonyl]-5-(2,2-difluoroethoxy)-1H-indol-6-yl]-6-chloropyridine-2-sulfonamide]	3.5	690	21
Cc1cccc(S(=O)(=O)Nc2cc3[nH]c(C(=O)c4cnn(-c5cnc(Oc6c(F)cccc6F)cc5C)c4N)cc3cc2OCC(F)F)n1 [Example 5-1-573, N-[2-[5-amino-1-[6-(2,6-difluorophenoxy)-4-methylpyridin-3-yl]pyrazole-4-carbonyl]-5-(2,2-difluoroethoxy)-1H-indol-6-yl]-6-methylpyridine-2-sulfonamide]	2.9	440	14
